In ChEMBL document CHEMBL1201862, “PubChem BioAssay data set” (2004):
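Protocol summary: plate cells (96-well), add compound at 5 concentrations, incubate 48 h, interpolate endpoints linearly. GI50 is the concentration that inhibits growth by half.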 Active and inactive are the calls of the source. No stated cut-off is given here; in the data, active = GI50 up to about 1.1 µM and inactive = higher.

What was measured:
Assay in all cases: growth of human tumour cells (NCI), 48 h
IGROV-1 = tested on: IGROV-1
SK-OV-3 = tested on: SK-OV-3
NCI-H522 = tested on: NCI-H522
NCI-H226 = tested on: NCI-H226
SR = tested on: SR
OVCAR-5 = tested on: OVCAR-5
SF-295 = tested on: SF-295
SNB-19 = tested on: SNB-19
HCC 2998 = tested on: HCC 2998
SF-539 = tested on: SF-539
SNB-78 = tested on: SNB-78
M14 = tested on: M14
UACC-62 = tested on: UACC-62
EKVX = tested on: EKVX
KM12 = tested on: KM12
MOLT-4 = tested on: MOLT-4
SW-620 = tested on: SW-620
SNB-75 = tested on: SNB-75

Row | SMILES | GI50 (IGROV-1) | GI50 (SK-OV-3) | GI50 (NCI-H522) | GI50 (NCI-H226) | GI50 (SR) | GI50 (OVCAR-5) | GI50 (SF-295) | GI50 (SNB-19) | GI50 (HCC 2998) | GI50 (SF-539) | GI50 (SNB-78) | GI50 (M14) | GI50 (UACC-62) | GI50 (EKVX) | GI50 (KM12) | GI50 (MOLT-4) | GI50 (SW-620) | GI50 (SNB-75)
1 | NC1=NS(=O)(=O)N=C(N)C1=Cc1ccc([N+](=O)[O-])o1 | 18.2 µM (inactive) | 35 µM (inactive) | 17.7 µM (inactive) | 30.8 µM (inactive) | 3.73 µM (inactive) | 18.9 µM (inactive) | 25.4 µM (inactive) | 32.8 µM (inactive) | 22.1 µM (inactive) | 18.3 µM (inactive) | 19.6 µM (inactive) | 14 µM (inactive) | 16.4 µM (inactive) | 17.9 µM (inactive) | 18.5 µM (inactive) | 12.6 µM (inactive) | 18.3 µM (inactive) | 16.3 µM (inactive)
2 | NCCSc1cc(O)c2c(c1N)C(=O)c1ccccc1C2=O | 18.8 µM (inactive) | > 100 µM (inactive) | 19.6 µM (inactive) |  | 20.8 µM (inactive) | > 100 µM (inactive) | 46 µM (inactive) | 34 µM (inactive) | > 100 µM (inactive) | 92.5 µM (inactive) | 32.1 µM (inactive) | 74.3 µM (inactive) | 36.7 µM (inactive) | > 100 µM (inactive) | 51.2 µM (inactive) | 20.9 µM (inactive) | 33.1 µM (inactive) | 67.6 µM (inactive)
3 | O=C1NC(=S)NC(=O)C1=Cc1ccc2ccccc2n1 | > 100 µM (inactive) | > 100 µM (inactive) | > 100 µM (inactive) | > 100 µM (inactive) | > 100 µM (inactive) | > 100 µM (inactive) | > 100 µM (inactive) | > 100 µM (inactive) | > 100 µM (inactive) | > 100 µM (inactive) | > 100 µM (inactive) | > 100 µM (inactive) | > 100 µM (inactive) | > 100 µM (inactive) | > 100 µM (inactive) | > 100 µM (inactive) | > 100 µM (inactive) | > 100 µM (inactive)
4 | O=c1[nH]c(S)nc2c1sc(=S)n2-c1ccccc1 | > 100 µM (inactive) | > 100 µM (inactive) | > 100 µM (inactive) | > 100 µM (inactive) | > 100 µM (inactive) | > 100 µM (inactive) | > 100 µM (inactive) | > 100 µM (inactive) | > 100 µM (inactive) | > 100 µM (inactive) | > 100 µM (inactive) | > 100 µM (inactive) | > 100 µM (inactive) | > 100 µM (inactive) | > 100 µM (inactive) | > 100 µM (inactive) | > 100 µM (inactive) | 55.1 µM (inactive)
5 | COC(=O)/C(C#N)=C1\CCC(OC)N1C (configuration not stated) | > 100 µM (inactive) | > 100 µM (inactive) | > 100 µM (inactive) | > 100 µM (inactive) |  | > 100 µM (inactive) | > 100 µM (inactive) | > 100 µM (inactive) | > 100 µM (inactive) | > 100 µM (inactive) | > 100 µM (inactive) | > 100 µM (inactive) | > 100 µM (inactive) | > 100 µM (inactive) | > 100 µM (inactive) | > 100 µM (inactive) | > 100 µM (inactive) | > 100 µM (inactive)
6 | Cc1cc2nc(O)c(CCC(=O)O)nc2cc1C | > 100 µM (inactive) | > 100 µM (inactive) | 83.8 µM (inactive) | > 100 µM (inactive) | 43.4 µM (inactive) | > 100 µM (inactive) | > 100 µM (inactive) | > 100 µM (inactive) | > 100 µM (inactive) | > 100 µM (inactive) | > 100 µM (inactive) | > 100 µM (inactive) | > 100 µM (inactive) | > 100 µM (inactive) | > 100 µM (inactive) | > 100 µM (inactive) |  | > 100 µM (inactive)
7 | CCOC(=O)CCC(=O)C1c2cccc(O)c2C(=O)c2c(O)cccc21 | 1.87 µM (inactive) |  | 0.408 µM (active) |  | 2.24 µM (inactive) | 1.75 µM (inactive) | 0.644 µM (active) | 1.56 µM (inactive) | 0.537 µM (active) | 0.411 µM (active) | 2.04 µM (inactive) | 0.566 µM (active) | 0.395 µM (active) |  | 0.652 µM (active) | 2.31 µM (inactive) | 0.6 µM (active) | 0.877 µM (active)
8 | CC(/C=C/NNC1=NN=C(c2ccccc2)C(c2ccccc2)N1)Sc1ccccc1N (configuration not stated) | 14.4 µM (inactive) | 17.1 µM (inactive) | 3.56 µM (inactive) | 10.9 µM (inactive) | 2.99 µM (inactive) | 17.5 µM (inactive) | 10.5 µM (inactive) | 12.5 µM (inactive) | 15.7 µM (inactive) | 8.24 µM (inactive) | 7.31 µM (inactive) | 3.41 µM (inactive) | 3.39 µM (inactive) | 18.5 µM (inactive) | 8.85 µM (inactive) | 3.43 µM (inactive) | 2.75 µM (inactive) | 3.3 µM (inactive)
9 | COc1ccc([C@H]2CC3C(=O)N(c4ccc(OC)cc4)C(=O)C3c3[nH]c4ccccc4c32)cc1 (some centres not stated) | > 100 µM (inactive) | 44.2 µM (inactive) | 99.5 µM (inactive) | 91 µM (inactive) |  | > 100 µM (inactive) | 16.7 µM (inactive) | 32.1 µM (inactive) | > 100 µM (inactive) | 20.7 µM (inactive) | > 100 µM (inactive) | 66.5 µM (inactive) | > 100 µM (inactive) | > 100 µM (inactive) | 47 µM (inactive) | 32.9 µM (inactive) | 45.6 µM (inactive) | 16.1 µM (inactive)
10 | CC(C)c1ccccc1NC(=O)CCC(=O)NN | > 100 µM (inactive) | > 100 µM (inactive) | > 100 µM (inactive) | > 100 µM (inactive) | > 100 µM (inactive) |  | > 100 µM (inactive) | > 100 µM (inactive) |  | > 100 µM (inactive) | > 100 µM (inactive) | > 100 µM (inactive) | > 100 µM (inactive) | > 100 µM (inactive) | > 100 µM (inactive) | > 100 µM (inactive) | > 100 µM (inactive) | > 100 µM (inactive)
11 | COc1ccc(-c2cc(-c3cc(Cl)cc(Br)c3O)nc(O)n2)cc1 | 20.4 µM (inactive) | 19.5 µM (inactive) | 13.4 µM (inactive) | 17.5 µM (inactive) | 18 µM (inactive) |  | 18 µM (inactive) | 23.9 µM (inactive) | 19.9 µM (inactive) | 14.7 µM (inactive) | 18.7 µM (inactive) | 19.2 µM (inactive) | 14.9 µM (inactive) | 5.87 µM (inactive) | 18.9 µM (inactive) | 13.2 µM (inactive) | 20.7 µM (inactive) | 15.4 µM (inactive)
12 | CCSc1nnc(-c2ccccc2)nc1Cc1ccc(OC)cc1 | > 100 µM (inactive) | 67.3 µM (inactive) | 43.3 µM (inactive) | > 100 µM (inactive) | 42.8 µM (inactive) |  | 52.5 µM (inactive) | > 100 µM (inactive) | > 100 µM (inactive) | > 100 µM (inactive) | 78 µM (inactive) | > 100 µM (inactive) | > 100 µM (inactive) | > 100 µM (inactive) | > 100 µM (inactive) | 49.2 µM (inactive) | > 100 µM (inactive) | 65.8 µM (inactive)
13 | CC1(C)Oc2ccccc2N2O[C@@H]3C(=O)N(c4ccccc4)C(=O)[C@@H]3C21c1ccccc1 (some centres not stated) | 47.5 µM (inactive) | 22.1 µM (inactive) | 28.7 µM (inactive) | 55.3 µM (inactive) |  | 78.3 µM (inactive) | 15.7 µM (inactive) | 19.7 µM (inactive) | > 100 µM (inactive) | 17.3 µM (inactive) | 35.5 µM (inactive) | 20.7 µM (inactive) | 33.1 µM (inactive) | 56.1 µM (inactive) | 30.6 µM (inactive) | 27.1 µM (inactive) | 34.4 µM (inactive) | 17.7 µM (inactive)
14 | CCOC(=O)c1csc(CCCCCCc2nc(C(=O)OCC)cs2)n1 | > 100 µM (inactive) | > 65.5 µM (inactive) | > 100 µM (inactive) | 44.9 µM (inactive) | > 100 µM (inactive) | > 100 µM (inactive) | 52.2 µM (inactive) | > 76.4 µM (inactive) | > 100 µM (inactive) | > 58.3 µM (inactive) | 45.3 µM (inactive) | > 100 µM (inactive) | > 83.8 µM (inactive) | > 86.7 µM (inactive) | > 100 µM (inactive) | > 75 µM (inactive) | > 41.7 µM (inactive) | 21.1 µM (inactive)
15 | CSC(=O)C[C@@]12O[C@@H]([C@@H](C)C3CCC4[C@@H]5C(O)CC6=CC(=O)C=C[C@]6(C)C5CC[C@@]43C)C[C@](C)(O1)C(C)(C)O2 (some centres not stated) | 16.1 µM (inactive) | 16.6 µM (inactive) | 14.1 µM (inactive) | 22.3 µM (inactive) | 9.95 µM (inactive) | 17.7 µM (inactive) | 14.5 µM (inactive) | 17.5 µM (inactive) | 26.2 µM (inactive) | 16.3 µM (inactive) | 15.5 µM (inactive) | 16.3 µM (inactive) | 10.3 µM (inactive) |  | 16 µM (inactive) |  | 17.3 µM (inactive) | 
16 | COC(=O)C1=Cc2cc(OC)c(OC)c(OC)c2[C@H](c2cc(OC)c(OC)c(OC)c2)C1C(=O)OC (some centres not stated) | > 100 µM (inactive) | > 100 µM (inactive) | > 100 µM (inactive) | > 100 µM (inactive) |  | > 100 µM (inactive) | > 100 µM (inactive) | > 100 µM (inactive) | > 100 µM (inactive) | > 100 µM (inactive) | > 100 µM (inactive) | > 100 µM (inactive) | > 100 µM (inactive) | > 100 µM (inactive) | > 100 µM (inactive) | > 100 µM (inactive) | > 100 µM (inactive) | > 100 µM (inactive)
